# How the values were obtained:
# LOLRI [1] = experiment: Herbicidal pre-emergence action (Table A3); format: in vivo, Lolium rigidum; settings: visual grading after ca. 3 weeks
# Procedure, shortened: (§1)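 Sandy loam filled the pots; weed seeds went in as paired sowings of one grass-type and one broadleaf species, then were covered with soil.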
# ABUTH [2] = experiment: Herbicidal post-emergence action (Table B1); format: in vivo, Abutilon theophrasti; settings: treated at one-leaf stage, rated visually after about 3 weeks vs untreated controls (100% = plants have died, 0% = like control plants)
# Procedure, shortened: (§2)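 Treated at one-leaf stage (2–3 weeks after sowing in sandy loam, greenhouse-grown). Visual efficacy rating after about 3 weeks; 0% = like controls, 100% = complete kill.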
# ALOMY [3] = experiment: Herbicidal post-emergence action (Table B2); format: in vivo, Alopecurus myosuroides; settings: application rate 1280 g/ha; rated visually after about 3 weeks
# Procedure, shortened: as §2
# KCHSC [4] = experiment: Herbicidal post-emergence action (Table B4); format: in vivo, Kochia scoparia; settings: application rate 1280 g/ha; rated visually after about 3 weeks
# Method: (§3) Seeds of mono- and dicotyledonous weed plants were placed in plastic pots in sandy loam soil (doubly sown with in each case one species of mono- or dicotyledonous weed plants per pot), covered with soil and cultivated in a greenhouse under controlled growth conditions. 2 to 3 weeks after sowing, the test plants were treated at the one-leaf stage. […] After the test plants had been kept in the greenhouse under optimum growth conditions for about 3 weeks, the activity of the preparations was rated visually in comparison to untreated controls. For example, 100% activity = the plants have died, 0% activity = like control plants.
# SETVI [5] = experiment: Herbicidal pre-emergence action (Table A5); format: in vivo, Setaria viridis; settings: visual grading after ca. 3 weeks
# Procedure, shortened: as §1
# ABUTH [6] = experiment: Herbicidal pre-emergence action (Table A1); format: in vivo, Abutilon theophrasti; settings: application rate 1280 g/ha; visual grading after ca. 3 weeks vs untreated controls (100% = plants have died off, 0% = as control plants)
# Procedure, shortened: as §1
# ECHCG [7] = experiment: Herbicidal post-emergence action (Table B3); format: in vivo, Echinochloa crus-galli; settings: rated visually after about 3 weeks
# Procedure, shortened: as §2
# POAAN [8] = experiment: Herbicidal post-emergence action (Table B7); format: in vivo, Poa annua; settings: application rate 320 g/ha
# Procedure, shortened: as §2
# AMARE [9] = experiment: Herbicidal post-emergence action (Table B11); format: in vivo, Amaranthus retroflexus; settings: application rate 1280 g/ha
# Procedure, shortened: as §2
# MATIN [10] = experiment: Herbicidal pre-emergence action (Table A4); format: in vivo, Matricaria inodora; settings: visual grading after ca. 3 weeks
# Procedure, shortened: as §1
# VERPE [11] = experiment: Herbicidal pre-emergence action (Table A11); format: in vivo, Veronica persica; settings: application rate 1280 g/ha; visual grading after ca. 3 weeks
# Procedure, shortened: as §1
# DIGSA [12] = experiment: Herbicidal post-emergence action (Table B12); format: in vivo, Digitaria sanguinalis
# Method: as §3
# STEME [13] = experiment: Herbicidal post-emergence action (Table B9); format: in vivo, Stellaria media; settings: application rate 320 g/ha
# Method: as §3
# STEME [14] = experiment: Herbicidal pre-emergence action (Table A6); format: in vivo, Stellaria media; settings: application rate 320 g/ha; visual grading after ca. 3 weeks
# Procedure, shortened: as §1
# VERPE [15] = experiment: Herbicidal post-emergence action (Table B10); format: in vivo, Veronica persica
# Procedure, shortened: as §2
# SETVI [16] = experiment: Herbicidal post-emergence action (Table B8); format: in vivo, Setaria viridis
# Procedure, shortened: as §2
# LOLRI [17] = experiment: Herbicidal post-emergence action (Table B5); format: in vivo, Lolium rigidum; settings: rated visually after about 3 weeks
# Procedure, shortened: as §2
# ECHCG [18] = experiment: Herbicidal pre-emergence action (Table A2); format: in vivo, Echinochloa crus-galli; settings: visual grading after ca. 3 weeks
# Procedure, shortened: as §1
# DIGSA [19] = experiment: Herbicidal pre-emergence action (Table A12); format: in vivo, Digitaria sanguinalis; settings: application rate 320 g/ha; visual grading after ca. 3 weeks
# Procedure, shortened: as §1
# POAAN [20] = experiment: Herbicidal pre-emergence action (Table A7); format: in vivo, Poa annua; settings: application rate 320 g/ha, visual grading after ca. 3 weeks
# Procedure, shortened: as §1
# KCHSC [21] = experiment: Herbicidal pre-emergence action (Table A10); format: in vivo, Kochia scoparia; settings: application rate 320 g/ha; visual grading after ca. 3 weeks
# Procedure, shortened: as §1
# AMARE [22] = experiment: Herbicidal pre-emergence action (Table A8); format: in vivo, Amaranthus retroflexus; settings: visual grading after ca. 3 weeks vs untreated controls (100% = plants have died off, 0% = as control plants)
# Procedure, shortened: as §1
# VIOTR = experiment: Herbicidal pre-emergence action, section C (Table C12); format: in vivo, Viola tricolor; settings: application rate 80 g/ha; visual grading after ca. 3 weeks
# SETVI [23] = experiment: Herbicidal pre-emergence action, section C (Table C10); format: in vivo, Setaria viridis; settings: application rate 80 g/ha; visual grading after ca. 3 weeks
# ALOMY [24] = experiment: Herbicidal pre-emergence action (Table A9); format: in vivo, Alopecurus myosuroides; settings: application rate 1280 g/ha; visual grading after ca. 3 weeks
# Procedure, shortened: as §1
# ALOMY [25] = experiment: Herbicidal post-emergence action, section E (Table E2); format: in vivo, Alopecurus myosuroides; settings: application rate 320 g/ha; assessed visually after ca. 3 weeks
# Excerpt: (§4) 2 to 3 weeks after sowing, the test plants were sprayed in the single-leaf stage.
# ORYZA [26] = experiment: Post-emergence effects on crop plants (Table F3); format: in vivo, Oryza sativa; settings: application rate 320 g/ha, crop plant ORYZA
# Excerpt: as §4
# ABUTH [27] = experiment: Herbicidal pre-emergence action, section C (Table C1); format: in vivo, Abutilon theophrasti; settings: application rate 320 g/ha; visual grading after ca. 3 weeks
# BRSNW = experiment: Post-emergence effects on crop plants (Table F5); format: in vivo, Brassica napus; settings: application rate 320 g/ha, crop plant BRSNW
# Excerpt: as §4
# LOLRI [28] = experiment: Herbicidal pre-emergence action, section C (Table C7); format: in vivo, Lolium rigidum; settings: application rate 80 g/ha; visual grading after ca. 3 weeks
# ORYZA [29] = experiment: Pre-emergence effects on crop plants (Table D3); settings: crop plant; application rate 80 g/ha; visual grading after ca. 3 weeks
# GLXMA = experiment: Post-emergence effects on crop plants (Table F4); format: in vivo, Glycine max; settings: application rate 80 g/ha, crop plant GLXMA
# Excerpt: as §4
# VERPE [30] = experiment: Herbicidal pre-emergence action, section C (Table C11); format: in vivo, Veronica persica; settings: application rate 80 g/ha; visual grading after ca. 3 weeks
# ALOMY [31] = experiment: Herbicidal pre-emergence action, section C (Table C2); format: in vivo, Alopecurus myosuroides; settings: application rate 80 g/ha; visual grading after ca. 3 weeks
# ZEAMX [32] = experiment: Post-emergence effects on crop plants (Table F1); format: in vivo, Zea mays; settings: application rate 80 g/ha, crop plant ZEAMX
# Excerpt: as §4
# ZEAMX [33] = experiment: Pre-emergence effects on crop plants (Table D1); format: in vivo, Zea mays; settings: crop plant; application rate 80 g/ha; visual grading after ca. 3 weeks
# Excerpt: Seeds of mono- and dicotyledonous weed plants and crop plants were sown, in plastic or organic planting pots, in sandy loam and covered with soil. The compounds according to the invention, formulated in the form of wettable powders (WP) or as emulsifiable concentrates (EC), were applied to the surface of the covering soil as aqueous suspension or emulsion, with the addition of 0.5% of an additive, at an application rate of 600 1 of water/ha (converted).
# Following treatment, the pots were placed in a greenhouse and kept under optimum growth conditions for the test plants.
# MATIN [34] = experiment: Herbicidal post-emergence action (Table B6); format: in vivo, Matricaria inodora; settings: application rate 1280 g/ha; rated visually after about 3 weeks
# Procedure, shortened: as §2
# MATIN [35] = experiment: Herbicidal pre-emergence action, section C (Table C8); format: in vivo, Matricaria inodora; settings: application rate 320 g/ha; visual grading after ca. 3 weeks
# DIGSA [36] = experiment: Herbicidal pre-emergence action, section C (Table C5); format: in vivo, Digitaria sanguinalis; settings: application rate 80 g/ha; visual grading after ca. 3 weeks
# VERPE [37] = experiment: Herbicidal post-emergence action, section E (Table E9); format: in vivo, Veronica persica; settings: application rate 320 g/ha; assessed visually after ca. 3 weeks
# Excerpt: as §4
# ECHCG [38] = experiment: Herbicidal pre-emergence action, section C (Table C6); format: in vivo, Echinochloa crus-galli; settings: application rate 80 g/ha; visual grading after ca. 3 weeks
# ECHCG [39] = experiment: Herbicidal post-emergence action, section E (Table E5); format: in vivo, Echinochloa crus-galli; settings: application rate 320 g/ha; assessed visually after ca. 3 weeks
# Excerpt: as §4
# TRZAS = experiment: Post-emergence effects on crop plants (Table F2); format: in vivo, Triticum aestivum; settings: application rate 320 g/ha, crop plant TRZAS
# Excerpt: as §4
structure (smiles),measurement,setting,value
"O=C1N(Cc2cnc(Br)s2)CCCC12CCCN(Cc1cnc(Br)s1)C2=O (single isomer, unassigned; (+)) [I-205, (+)-2,8-bis[(2-bromo-1,3-thiazol-5-yl)methyl]-2,8-diazaspiro[5.5]undecane-1,7-dione]",pest or weed control at 1280 g/ha,"LOLRI [1]; Lolium rigidum, pre-emergence, 504 h, application rate 1280 g/ha, read-out: pre-emergence activity against LOLRI",100%
same,post-emergence activity against ABUTH,ABUTH [2]; application rate 320 g/ha,90%
same,post-emergence activity against ALOMY,ALOMY [3],90%
same,post-emergence activity against KCHSC,KCHSC [4],90%
same,pre-emergence activity against SETVI,SETVI [5]; application rate 320 g/ha,100%
same,pre-emergence activity against ABUTH,ABUTH [6],90%
same,pest or weed control at 320 g/ha,"ECHCG [7]; Echinochloa crus-galli, post-emergence, 504 h, application rate 320 g/ha, read-out: post-emergence activity against ECHCG",90%
same,post-emergence activity against POAAN,POAAN [8],90%
same,post-emergence activity against AMARE,AMARE [9],90%
same,pre-emergence activity against MATIN,MATIN [10]; application rate 1280 g/ha,90%
same,pre-emergence activity against VERPE,VERPE [11],100%
same,post-emergence activity against DIGSA,DIGSA [12]; application rate 320 g/ha,90%
same,post-emergence activity against STEME,STEME [13],90%
same,pre-emergence activity against STEME,STEME [14],90%
same,post-emergence activity against VERPE,VERPE [15]; application rate 320 g/ha,90%
same,post-emergence activity against SETVI,SETVI [16]; application rate 320 g/ha,90%
same,post-emergence activity against LOLRI,LOLRI [17]; application rate 320 g/ha,90%
same,pre-emergence activity against ECHCG,ECHCG [18]; application rate 1280 g/ha,90%
same,pre-emergence activity against DIGSA,DIGSA [19],90%
same,pest or weed control at 320 g/ha,"POAAN [20]; Poa annua, pre-emergence, 504 h, read-out: pre-emergence activity against POAAN",100%
same,pre-emergence activity against KCHSC,KCHSC [21],100%
same,pre-emergence activity against AMARE,AMARE [22]; application rate 320 g/ha,90%
O=C1N(Cc2cccc(F)c2F)CCC12CCCN(Cc1c(F)cccc1F)C2=O (racemic) [I-015],pre-emergence activity against LOLRI,LOLRI [1]; application rate 320 g/ha,100%
same,pre-emergence activity against VIOTR,VIOTR,90%
same,post-emergence activity against ABUTH,ABUTH [2]; application rate 1280 g/ha,90%
same,pre-emergence activity against SETVI,SETVI [23],90%
same,pre-emergence activity against ALOMY,ALOMY [24],90%
same,post-emergence activity against ALOMY,ALOMY [25],80%
same,post-emergence activity against KCHSC,KCHSC [4],90%
same,pre-emergence activity against SETVI,SETVI [5]; application rate 1280 g/ha,100%
same,post-emergence activity against ORYZA,ORYZA [26],0%
same,pre-emergence activity against ABUTH,ABUTH [6],90%
same,post-emergence activity against ECHCG,ECHCG [7]; application rate 1280 g/ha,90%
same,pre-emergence activity against MATIN,MATIN [10]; application rate 320 g/ha,90%
same,pre-emergence activity against ABUTH,ABUTH [27],90%
same,post-emergence activity against BRSNW,BRSNW,0%
same,pre-emergence activity against VERPE,VERPE [11],90%
same,pre-emergence activity against LOLRI,LOLRI [28],100%
same,post-emergence activity against DIGSA,DIGSA [12]; application rate 1280 g/ha,90%
same,pre-emergence activity against STEME,STEME [14],90%
same,pre-emergence activity against ORYZA,ORYZA [29],0%
same,post-emergence activity against VERPE,VERPE [15]; application rate 1280 g/ha,90%
same,post-emergence activity against SETVI,SETVI [16]; application rate 1280 g/ha,90%
same,post-emergence activity against LOLRI,LOLRI [17]; application rate 1280 g/ha,90%
same,pre-emergence activity against ECHCG,ECHCG [18]; application rate 320 g/ha,100%
same,post-emergence activity against GLXMA,GLXMA,20%
same,pre-emergence activity against VERPE,VERPE [30],90%
same,pre-emergence activity against ALOMY,ALOMY [31],90%
same,post-emergence activity against ZEAMX,ZEAMX [32],0%
same,pre-emergence activity against DIGSA,DIGSA [19],100%
same,pre-emergence activity against ZEAMX,ZEAMX [33],0%
same,pre-emergence activity against POAAN,POAAN [20],100%
same,pre-emergence activity against KCHSC,KCHSC [21],90%
same,post-emergence activity against MATIN,MATIN [34],90%
same,pre-emergence activity against MATIN,MATIN [35],90%
same,pre-emergence activity against DIGSA,DIGSA [36],90%
same,pre-emergence activity against AMARE,AMARE [22]; application rate 1280 g/ha,90%
same,post-emergence activity against VERPE,VERPE [37],80%
same,pre-emergence activity against ECHCG,ECHCG [38],100%
same,post-emergence activity against ECHCG,ECHCG [39],90%
same,post-emergence activity against TRZAS,TRZAS,0%
